Test results as given in patent US7138361B2, “Herbicidal heterocycles” (E. I. du Pont de Nemours and Company, priority 2000, dated 2006).

How the values were obtained:
Format in all cases: in vivo
[1] = system: smallflower flatsedge (Cyperus difformis); assay: Test B flooded paddy test; conditions: Rate 1000 g/ha, scale of 0 to 100 where 0 is no effect and 100 is complete control, visually evaluated after 13 to 15 days
Description: (§1) At the same time, plants selected from these crop and weed species and also blackgrass (Alopecurus myosuroides), wheat (Triticum aestivum) and wild oat (Avena fatua) were treated with postemergence applications of test chemicals formulated in the same manner. Plants ranged in height from 2 to 18 cm (1- to 4-leaf stage) for postemergence treatments. Plant species in the flooded paddy test consisted of rice (Oryza saliva), smallflower flatsedge (Cyperus difformis), duck salad (Heteranthera limosa) and barnyardgrass (Echinochloa crus-galli) grown to the 2-leaf stage for testing. Treated plants and controls were maintained in a greenhouse for 13 to 15 days, after which time all species were compared to controls and visually evaluated. Plant response ratings, summarized in Table B, are based on a scale of 0 to 100 where 0 is no effect and 100 is complete control. A dash (-) response means no test result.

rice (Oryza saliva) [2] = assay: Test B flooded paddy test; conditions: Rate 1000 g/ha, scale of 0 to 100 where 0 is no effect and 100 is complete control, visually evaluated after 13 to 15 days
Description: as §1

[3] = system: barnyardgrass (Echinochloa crus-galli); assay: Test B flooded paddy test; conditions: Rate 1000 g/ha, scale of 0 to 100 where 0 is no effect and 100 is complete control, visually evaluated after 13 to 15 days
Description: as §1

[4] = system: duck salad (Heteranthera limosa); assay: Test B flooded paddy test; conditions: Rate 1000 g/ha, scale of 0 to 100 where 0 is no effect and 100 is complete control, visually evaluated after 13 to 15 days
Description: as §1

[5] = system: Surinam grass (Brachiaria decumbens); assay: Test B preemergence
Method in brief: (§2)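 Seeds were planted and sprayed preemergence with test chemical in a non-phytotoxic solvent mixture containing surfactant; postemergence plants (2 to 18 cm, 1- to 4-leaf stage) received the same formulation. Greenhouse hold 13 to 15 days, then visual rating versus untreated controls on a 0–100 scale (0 no effect, 100 complete control).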

[6] = system: velvetleaf (Abutilon theophrasti); assay: Test B preemergence
Method in brief: as §2

[7] = system: giant foxtail (Setaria faberii); assay: Test B preemergence
Method in brief: as §2

[8] = system: cocklebur (Xanthium strumarium); assay: Test B preemergence
Method in brief: as §2

[9] = system: pigweed (Amaranthus retroflexus); assay: Test B preemergence
Method in brief: as §2

rice (Oryza saliva) [10] = assay: Test B preemergence
Method in brief: as §2

[11] = system: barnyardgrass (Echinochloa crus-galli); assay: Test B preemergence
Method in brief: as §2

[12] = system: crabgrass (Digitaria sanguinalis); assay: Test B preemergence
Method in brief: as §2

corn (Zea mays) [13] = assay: Test B preemergence
Method in brief: as §2

[14] = system: morning glory (Ipomoea hederacea); assay: Test B preemergence
Method in brief: as §2

[15] = system: lambsquarters (Chenopodium album); assay: Test B preemergence
Method in brief: as §2

[16] = system: Surinam grass (Brachiaria decumbens); assay: Test B postemergence
Method in brief: as §2

[17] = system: wheat (Triticum aestivum); assay: Test B postemergence
Method in brief: as §2

[18] = system: blackgrass (Alopecurus myosuroides); assay: Test B postemergence
Method in brief: as §2

[19] = system: velvetleaf (Abutilon theophrasti); assay: Test B postemergence
Method in brief: as §2

[20] = system: giant foxtail (Setaria faberii); assay: Test B postemergence
Method in brief: as §2

[21] = system: cocklebur (Xanthium strumarium); assay: Test B postemergence
Method in brief: as §2

[22] = system: pigweed (Amaranthus retroflexus); assay: Test B postemergence
Method in brief: as §2

wild oat (Avena fatua) = assay: Test B postemergence
Method in brief: as §2

[23] = system: barnyardgrass (Echinochloa crus-galli); assay: Test B postemergence
Method in brief: as §2

[24] = system: crabgrass (Digitaria sanguinalis); assay: Test B postemergence
Method in brief: as §2

corn (Zea mays) [25] = assay: Test B postemergence
Method in brief: as §2

[26] = system: morning glory (Ipomoea hederacea); assay: Test B postemergence
Method in brief: as §2

[27] = system: lambsquarters (Chenopodium album); assay: Test B postemergence
Method in brief: as §2

[28] = Preemergence, Rate 500 g/ha, scale 0 to 100, 0 no effect, 100 complete control
[29] = preemergence, Rate 125 g/ha, scale of 0 to 100 where 0 is no effect and 100 is complete control, 13 to 15 days
[30] = Rate 125 g/ha, scale 0 to 100, 0 no effect, 100 complete control
[31] = Rate 500 g/ha, scale 0 (no effect) to 100 (complete control), 13 to 15 days
[32] = Rate 125 g/ha, scale 0 (no effect) to 100 (complete control), 13 to 15 days
[33] = Rate 500 g/ha, scale 0 to 100, 0 is no effect, 100 is complete control, 13 to 15 days
[34] = preemergence, Rate 125 g/ha, scale 0 to 100, 0 no effect, 100 complete control

Cc1ccnc(N2CCC(n3ccc(C(C)(C)C)n3)C2=O)c1 (centres unmarked) [Compound 139]
Plant response rating, Flatsedge [1]: 70 | Plant response rating, Rice (rice (Oryza saliva) [2]): 0 | Plant response rating, Barnyardgrass [3]: 20 | Plant response rating, Ducksalad [4]: 0 | Plant response rating, Surinam grass [5, 28]: 0 | Plant response rating, Surinam grass [5, 29]: 0 | Plant response rating, Velvetleaf [6, 28]: 0 | Plant response rating, Velvetleaf [6, 29]: 0 | Plant response rating, Foxtail, Giant [7, 28]: 0 | Plant response rating, Foxtail, Giant [7, 29]: 0 | Plant response rating, Cocklebur [8, 28]: 0 | Plant response rating, Pigweed [9, 28]: 100 | Plant response rating, Pigweed [9, 29]: 0 | Plant response rating, Rice (rice (Oryza saliva) [10]; [28]): 0 | Plant response rating, Rice (rice (Oryza saliva) [10]; [29]): 0 | Plant response rating, Barnyardgrass [11, 28]: 0 | Plant response rating, Barnyardgrass [11, 29]: 0 | Plant response rating, Crabgrass [12, 28]: 0 | Plant response rating, Crabgrass [12, 29]: 0 | Plant response rating, Corn (corn (Zea mays) [13]; [28]): 0 | Plant response rating, Corn (corn (Zea mays) [13]; [29]): 0 | Plant response rating, Morningglory [14, 28]: 0 | Plant response rating, Morningglory [14, 29]: 0 | Plant response rating, Lambsquarters [15, 28]: 100 | Plant response rating, Lambsquarters [15, 29]: 100 | Plant response rating, Surinam grass [16, 30]: 0 | Plant response rating, Surinam grass [16, 31]: 0 | Plant response rating, Wheat [17, 30]: 0 | Plant response rating, Wheat [17, 31]: 0 | Plant response rating, Blackgrass [18, 30]: 0 | Plant response rating, Blackgrass [18, 31]: 0 | Plant response rating, Velvetleaf [19, 30]: 0 | Plant response rating, Velvetleaf [19, 31]: 0 | Plant response rating, Foxtail, Giant [20, 30]: 0 | Plant response rating, Foxtail, Giant [20, 31]: 0 | Plant response rating, Cocklebur [21, 30]: 0 | Plant response rating, Cocklebur [21, 31]: 0 | Plant response rating, Pigweed [22, 30]: 0 | Plant response rating, Pigweed [22, 31]: 0 | Plant response rating, Wild Oat (wild oat (Avena fatua); [30]): 0 | Plant response rating, Wild Oat (wild oat (Avena fatua); [31]): 0 | Plant response rating, Barnyardgrass [23, 30]: 0 | Plant response rating, Barnyardgrass [23, 31]: 0 | Plant response rating, Crabgrass [24, 30]: 0 | Plant response rating, Crabgrass [24, 31]: 0 | Plant response rating, Corn (corn (Zea mays) [25]; [30]): 0 | Plant response rating, Corn (corn (Zea mays) [25]; [31]): 0 | Plant response rating, Morningglory [26, 30]: 0 | Plant response rating, Morningglory [26, 31]: 0 | Plant response rating, Lambsquarters [27, 30]: 0 | Plant response rating, Lambsquarters [27, 31]: 0

COc1ccn(C2CCN(c3cccc(C(F)(F)F)c3)C2=O)n1 (centres unmarked) [Compound 60]
Plant response rating, Flatsedge [1]: 0 | Plant response rating, Rice (rice (Oryza saliva) [2]): 0 | Plant response rating, Barnyardgrass [3]: 0 | Plant response rating, Ducksalad [4]: 50 | Plant response rating, Surinam grass [5, 28]: 0 | Plant response rating, Surinam grass [5, 29]: 0 | Plant response rating, Velvetleaf [6, 28]: 0 | Plant response rating, Velvetleaf [6, 29]: 0 | Plant response rating, Foxtail, Giant [7, 28]: 0 | Plant response rating, Foxtail, Giant [7, 29]: 0 | Plant response rating, Cocklebur [8, 28]: 0 | Plant response rating, Cocklebur [8, 29]: 0 | Plant response rating, Pigweed [9, 28]: 100 | Plant response rating, Pigweed [9, 29]: 0 | Plant response rating, Rice (rice (Oryza saliva) [10]; [28]): 0 | Plant response rating, Rice (rice (Oryza saliva) [10]; [29]): 0 | Plant response rating, Barnyardgrass [11, 28]: 0 | Plant response rating, Barnyardgrass [11, 29]: 0 | Plant response rating, Crabgrass [12, 28]: 0 | Plant response rating, Corn (corn (Zea mays) [13]; [28]): 0 | Plant response rating, Corn (corn (Zea mays) [13]; [29]): 0 | Plant response rating, Morningglory [14, 28]: 0 | Plant response rating, Morningglory [14, 29]: 0 | Plant response rating, Lambsquarters [15, 28]: 0 | Plant response rating, Lambsquarters [15, 29]: 0 | Plant response rating, Surinam grass [16, 32]: 0 | Plant response rating, Surinam grass [16, 33]: 0 | Plant response rating, Wheat [17, 32]: 0 | Plant response rating, Wheat [17, 33]: 0 | Plant response rating, Blackgrass [18, 32]: 0 | Plant response rating, Blackgrass [18, 33]: 0 | Plant response rating, Velvetleaf [19, 32]: 0 | Plant response rating, Velvetleaf [19, 33]: 0 | Plant response rating, Foxtail, Giant [20, 32]: 0 | Plant response rating, Foxtail, Giant [20, 33]: 0 | Plant response rating, Cocklebur [21, 32]: 0 | Plant response rating, Cocklebur [21, 33]: 0 | Plant response rating, Pigweed [22, 32]: 0 | Plant response rating, Pigweed [22, 33]: 0 | Plant response rating, Wild Oat (wild oat (Avena fatua); [32]): 0 | Plant response rating, Wild Oat (wild oat (Avena fatua); [33]): 0 | Plant response rating, Barnyardgrass [23, 32]: 0 | Plant response rating, Barnyardgrass [23, 33]: 0 | Plant response rating, Crabgrass [24, 32]: 0 | Plant response rating, Crabgrass [24, 33]: 0 | Plant response rating, Corn (corn (Zea mays) [25]; [32]): 0 | Plant response rating, Corn (corn (Zea mays) [25]; [33]): 0 | Plant response rating, Morningglory [26, 32]: 0 | Plant response rating, Morningglory [26, 33]: 0 | Plant response rating, Lambsquarters [27, 32]: 0 | Plant response rating, Lambsquarters [27, 33]: 0

Cc1ccc(N2CCC(n3ccc(C(C)(C)C)n3)C2=O)cc1Cl (centres unmarked) [Compound 41]
Plant response rating, Flatsedge [1]: 100 | Plant response rating, Rice (rice (Oryza saliva) [2]): 40 | Plant response rating, Barnyardgrass [3]: 70 | Plant response rating, Ducksalad [4]: 70 | Plant response rating, Surinam grass [5, 28]: 0 | Plant response rating, Surinam grass [5, 34]: 0 | Plant response rating, Velvetleaf [6, 28]: 0 | Plant response rating, Foxtail, Giant [7, 28]: 60 | Plant response rating, Foxtail, Giant [7, 34]: 0 | Plant response rating, Cocklebur [8, 28]: 0 | Plant response rating, Cocklebur [8, 34]: 0 | Plant response rating, Pigweed [9, 28]: 100 | Plant response rating, Rice (rice (Oryza saliva) [10]; [28]): 0 | Plant response rating, Barnyardgrass [11, 28]: 100 | Plant response rating, Barnyardgrass [11, 34]: 40 | Plant response rating, Crabgrass [12, 28]: 0 | Plant response rating, Crabgrass [12, 34]: 0 | Plant response rating, Corn (corn (Zea mays) [13]; [28]): 0 | Plant response rating, Corn (corn (Zea mays) [13]; [34]): 0 | Plant response rating, Morningglory [14, 28]: 0 | Plant response rating, Lambsquarters [15, 28]: 100 | Plant response rating, Lambsquarters [15, 34]: 100 | Plant response rating, Surinam grass [16, 32]: 0 | Plant response rating, Surinam grass [16, 33]: 0 | Plant response rating, Wheat [17, 32]: 0 | Plant response rating, Wheat [17, 33]: 0 | Plant response rating, Blackgrass [18, 32]: 0 | Plant response rating, Blackgrass [18, 33]: 0 | Plant response rating, Velvetleaf [19, 32]: 0 | Plant response rating, Velvetleaf [19, 33]: 0 | Plant response rating, Foxtail, Giant [20, 32]: 0 | Plant response rating, Foxtail, Giant [20, 33]: 0 | Plant response rating, Cocklebur [21, 32]: 0 | Plant response rating, Cocklebur [21, 33]: 0 | Plant response rating, Pigweed [22, 32]: 0 | Plant response rating, Pigweed [22, 33]: 80 | Plant response rating, Wild Oat (wild oat (Avena fatua); [32]): 0 | Plant response rating, Wild Oat (wild oat (Avena fatua); [33]): 0 | Plant response rating, Barnyardgrass [23, 32]: 0 | Plant response rating, Barnyardgrass [23, 33]: 70 | Plant response rating, Crabgrass [24, 32]: 0 | Plant response rating, Crabgrass [24, 33]: 40 | Plant response rating, Corn (corn (Zea mays) [25]; [33]): 0 | Plant response rating, Morningglory [26, 32]: 0 | Plant response rating, Morningglory [26, 33]: 20 | Plant response rating, Lambsquarters [27, 32]: 0 | Plant response rating, Lambsquarters [27, 33]: 60
